Experimental data published in patent US20260055096A1, “AZOLE PESTICIDAL COMPOUNDS” (BASF SE, priority 2022, published 2026).

Experiments:
Type in all cases: in vivo
[1] = test system: Southern armyworm (Spodoptera eridania), 2nd instar larvae; experiment: Example B.7: Action on southern armyworm (Spodoptera eridania), 2nd instar larvae on sprayed lima bean plants; conditions: 96 h, 4 days after treatment, read-out: mortality in comparison with untreated controls
Description: The active compounds were formulated by a Tecan liquid handler in 100% cyclohexanone as a 10,000-ppm solution supplied in tubes. The 10,000-ppm solution was serially diluted in 100% cyclohexanone to make interim solutions. These served as stock solutions for which final dilutions were made by the Tecan in 50% acetone:50% water (v/v) into 10 or 20 ml glass vials. A nonionic surfactant (Kinetic®) was included in the solution at a volume of 0.01% (v/v). The vials were then inserted into an automated electrostatic sprayer equipped with an atomizing nozzle for application to plants/insects.
Lima bean plants (variety Sieva) were grown 2 plants to a pot and selected for treatment at the 1st true leaf stage. Test solutions were sprayed onto the foliage by an automated electrostatic plant sprayer equipped with an atomizing spray nozzle. The plants were dried in the sprayer fume hood and then removed from the sprayer. Each pot was placed into perforated plastic bags with a zip closure. About 10 to 11 armyworm larvae were placed into the bag and the bags zipped closed. Test plants were maintained in a growth room at about 25° C. and about 20-40% relative humidity for 4 days, avoiding direct exposure to fluorescent light (24-hour photoperiod) to prevent trapping of heat inside the bags. Mortality and reduced feeding were assessed 4 days after treatment, compared to untreated control plants.

[2] = test system: Diamond back moth (Plutella xylostella); experiment: Example B.6: Action on diamond back moth (Plutella xylostella), cabbage leaf dip, 3rd instar larvae; conditions: foliar, 72 hours after treatment, read-out: mortality in comparison with untreated controls
Description: The active compound is dissolved at the desired concentration in a mixture of 1:1 (v/v) distilled water: acetone. Surfactant (Kinetic® HV) is added at a rate of 0.01% (v/v). The test solution is prepared at the day of use.
Leaves of cabbage were dipped in test solution and air-dried. Treated leaves were placed in petri dishes lined with moist filter paper and inoculated with ten 3rd instar larvae. Mortality was recorded 72 hours after treatment. Feeding damages were also recorded using a scale of 0-100%.

[3] = test system: boll weevil (Anthonomus grandis); experiment: Example B.3: Action on boll weevil (Anthonomus grandis), egg and larval mortality on insect diet; conditions: 120 h, egg and larval mortality after 5 days, read-out: mortality in comparison with untreated controls
Description: For evaluating control of boll weevil (Anthonomus grandis) the test unit consisted of 96-well-microtiter plates containing an insect diet and 5-10 A. grandis eggs.
The compounds were formulated using a solution containing 75% (v/v) water and 25% (v/v) DMSO. Different concentrations of formulated compounds were sprayed onto the insect diet at […], using a custom-built micro atomizer, at two replications.
After application, microtiter plates were incubated at about 25±1C and about 75±5% relative humidity for 5 days. Egg and larval mortality were then visually assessed.

[4] = test system: Orchid thrips (Dichromothrips corbetti); experiment: Example B.2: Action on orchid thrips (Dichromothrips corbetti), floral-immersion technique; conditions: 72 hours after treatment, read-out: mortality in comparison with untreated controls
Description: Dichromothrips corbetti adults used for bioassay were obtained from a colony maintained continuously under laboratory conditions. For testing purposes, the test compound is diluted in a 1:1 mixture of acetone:water (vol:vol), plus Kinetic® HV at a rate of 0.01% v/v.
Thrips potency of each compound was evaluated by using a floral-immersion technique. All petals of individual, intact orchid flowers were dipped into treatment solution and allowed to dryin Petri dishes. Treated petals were placed into individual re-sealable plastic along with about 20 adult thrips. All test arenas were held under continuous light and a temperature of about 28° C. for duration of the assay. After 3 days, the numbers of live thrips were counted on each petal. The percent mortality was recorded 72 hours after treatment.

[5] = test system: tobacco budworm (Heliothis virescens); experiment: Example B.5: Action on tobacco budworm (Heliothis virescens), egg and larval mortality on insect diet; conditions: 120 h, egg and larval mortality after 5 days, read-out: mortality in comparison with untreated controls
Description: For evaluating control of tobacco budworm (Heliothis virescens) the test unit consisted of 96-well-microtiter plates containing an insect diet and 15-25 H. virescens eggs.
The compounds were formulated using a solution containing 75% v/v water and 25% v/v DMSO. Different concentrations of formulated compounds were sprayed onto the insect diet at 10 μl, using a custom-built micro atomizer, at two replications.
After application, microtiter plates were incubated at about 28±1C and about 80±5% relative humidity for 5 days. Egg and larval mortality were then visually assessed.

[6] = test system: Silverleaf whitefly (Bemisia argentifolii) (adults); experiment: Example B.4: Action on silverleaf whitefly (Bemisia argentifolii) adults on sprayed cotton plants; conditions: 72 h, 3 days after treatment, read-out: mortality in comparison with untreated controls
Description: The active compounds were formulated by a Tecan liquid handler in 100% cyclohexanone as a 10,000-ppm solution supplied in tubes. The 10,000-ppm solution was serially diluted in 100% cyclohexanone to make interim solutions. These served as stock solutions for which final dilutions were made by the Tecan in 50% acetone:50% water (v/v) into 5 or 10 ml glass vials. A nonionic surfactant (Kinetic®) was included in the solution at a volume of 0.01% (v/v). The vials were then inserted into an automated electrostatic sprayer equipped with an atomizing nozzle for application to plants/insects.
Cotton plants at the cotyledon stage (one plant per pot) were sprayed by an automated electrostatic plant sprayer equipped with an atomizing spray nozzle. The plants were dried in the sprayer fume hood and then removed from the sprayer. Each pot was placed into a plastic cup and about 10 to 12 whitefly adults (approximately 3-5 days old) were introduced. The insects were collected using an aspirator and a nontoxic Tygon® tubing connected to a barrier pipette tip. The tip, containing the collected insects, was then gently inserted into the soil containing the treated plant, allowing insects to crawl out of the tip to reach the foliage for feeding. Cups were covered with a reusable screened lid. […] Mortality was assessed 3 days after treatment, compared to untreated control plants.

[7] = test system: yellow fever mosquito (Aedes aegypti); experiment: whole plant or invertebrate; conditions: 48 h, larval mortality after 2 days, read-out: mortality in comparison with untreated controls
Description: For evaluating control of yellow fever mosquito (Aedes aegypti) the test unit consisted of 96-well-microtiter plates containing 200 μl of tap water per well and 5-15 freshly hatched A. aegypti larvae.
The active compounds or mixtures were formulated using a solution containing 75% (v/v) water and 25% (v/v) DMSO. Different concentrations of formulated compounds or mixtures were sprayed onto the insect diet at 2.5 μl, using a custom-built micro atomizer, at two replications.
For experimental mixtures in these tests identical volumes of both mixing partners at the desired concentrations respectively, were mixed together.
After application, microtiter plates were incubated at 28 #1° C., 80 #5% RH for 2 days. Larval mortality was then visually assessed.

Cc1ccc(C(C)C)c(N2C(=O)CS/C2=N\C(=O)Nc2ccc(-c3nc(NC(=O)c4ccc(OC(F)(F)F)cc4)n(C)n3)cc2Cl)c1 [Example C-6, N-[5-[3-chloro-4-[[(Z)-[3-(2-isopropyl-5-methyl-phenyl)-4-oxo-thiazolidin-2-ylidene]carbamoyl]amino]phenyl]-2-methyl-1,2,4-triazol-3-yl]-4-(trifluoromethoxy)benzamide]
≥ 50%: mortality at 800 ppm [7]
≥ 75%: mortality at 300 ppm [1] | mortality at 300 ppm [2] | mortality at 800 ppm [3] | mortality at 300 ppm [4] | mortality at 800 ppm [5] | mortality at 300 ppm [6]
